Laboratory results taken from US20200061035A1 (Heron Therapeutics, Inc., priority 2016, published 2020).

How the values were obtained:
[1] = cited from earlier work
[2] = Pharmacokinetic analysis of granisetron and olanzapine formulation in canines (plasma concentration by LC/MS/MS); assay type: in vivo; details: both sexes, dog, dogs, same formulation, approx. 5 mg granisetron, read-out: Average Plasma Concentrations of Granisetron
Protocol: Plasma samples were taken from each dog at the following time points: 0, 0.5, 1, 3, 6, 8, 24, 48, 72, 96, 120 hours, and frozen.

concentration at 0.5 h ([2]; 0.5 hrs) [ng/mL]	concentration at 1 h ([2]; 1 hr) [ng/mL]	concentration at 3 h ([2]; 3 hrs) [ng/mL]	concentration at 6 h ([2]; 6 hrs) [ng/mL]	concentration at 8 h ([2]; 8 hrs) [ng/mL]	concentration at 24 h ([2]; 24 hrs) [ng/mL]	concentration at 48 h ([2]; 48 hrs) [ng/mL]	concentration at 72 h ([2]; 72 hrs) [ng/mL]	concentration at 96 h ([2]; 96 hrs) [ng/mL]	concentration at 120 h ([2]; 120 hrs) [ng/mL]	SMILES	Solubility in water [1]
										Cc1cc2c(s1)Nc1ccccc1N=C2N1CCN(C)CC1 [Olanzapine, 2-methyl-10-(4-methyl-1-piperazinyl)-4H-thieno[2,3-b][1,5]benzodiazepine]	practically insoluble
11.7	14.3	14.2	10.7	8.02	6.82	3.27	1.54	0.95	0.4	CN1C2CCCC1CC(NC(=O)c1nn(C)c3ccccc13)C2 (centres unmarked) [Granisetron, granisetron]	
